This note sets out measurements from patent publication US20080161232A1, “C5a Receptor Antagonist” (JERINI AG, priority 2005, published 2008).

For test [1], the target named is T1, human C5aR(CD88) (Homo sapiens, UniProt P21730).
T1 construct: expressed in transfected cells; host or cells: rat basophilic leukemia cells (RBL)
T1 sequence (P21730 1-350): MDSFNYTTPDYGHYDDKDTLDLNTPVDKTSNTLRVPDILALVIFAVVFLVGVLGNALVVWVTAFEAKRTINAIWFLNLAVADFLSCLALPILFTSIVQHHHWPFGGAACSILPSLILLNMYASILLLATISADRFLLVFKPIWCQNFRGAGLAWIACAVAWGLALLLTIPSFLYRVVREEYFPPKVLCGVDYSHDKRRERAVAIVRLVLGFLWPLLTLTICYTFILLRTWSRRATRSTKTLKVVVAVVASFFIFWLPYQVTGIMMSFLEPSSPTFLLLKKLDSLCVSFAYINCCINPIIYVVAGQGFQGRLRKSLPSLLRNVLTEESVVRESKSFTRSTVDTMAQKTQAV
Nature of the test: Determination of the IC50 value in an enzyme release assay (functional assay, antagonistic activity). Particulars: for IC50: antagonistic activity, IC50 group in enzyme release assay, RBL cells expressing human C5aR(CD88), read-out: activity (group); for inhibitory activity (in words): functional assay of example 11, noteworthy = IC50 less than 200 nM. It is filed as cell-based.

Test [2] addresses T1, human C5aR(CD88). Nature of the test: Determination of EC50-values in an enzyme release assay (agonistic activity). It is filed as cell-based. The note with it: for EC50: agonistic activity, no C5a added, read-out: EC50; for agonistic activity (in words): cellular assay, up to a concentration of at least 1430 nM. The method, then: The assay procedure was described by Kohl (Kohl 1997 The Anaphylatoxins. In: Dodds, A. W., Sim, R. B. (Eds.), Complement: A Practical Approach. Oxford, pp. 135-163). Basophilic leukemia cells from rats (RBL), which express the human C5aR(CD88), were cultivated in DMEM with 10% fetal bovine serum, 100 U/ml penicillin, 100 μg/ml streptomycin and 2 mM glutamine (all components of the media from Biochrome, Berlin) to confluence at 37° C. and 10% CO2. The following specifications refer to single cell culture flask having a surface of 75 cm^2. Medium was decanted from cells. Cells were washed with 10 ml PBS (Dulbecco's PBS, Biochrome) and subsequently overlayed with 3 ml Cell Dissociation Solution (CDS, Sigma). Cells were incubated for 1 min at room temperature. Subsequently, CDS was removed and the cells were further incubated for 10-15 min at 37° C. for dissociation. In the assay, 20 μl of the solution containing the compound to be tested were used. This solution should not contain more than 2.8% DMSO. For the dilution process, the compounds were diluted in ⅓ or ½ steps. To 20 μl compound solution 75 μl of the RBL-cells were added, which were treated as follows: after dissociation cells were detached and warmed at 37° C. in 10 ml HAG-CM (20 mM HEPES; 125 mM NaCl, 5 mM KCl, 1 mM CaCl2, 1 mM MgCl2, 0,5 mM Glucose, 0,25% BSA. HEPES-preparation: 2.3 g/l HEPES-salt +2.66 g/l HEPES acid). Cells were counted and centrifuged (200×g, 10 min). The cell pellet was resuspended in preheated HAG-CM (i.e. Hepes-buffer NaCl-glucose-solution with calcium and magnesium), and the cell density was adjusted to 2×10^6 cells/ml. The cells were incubated at 37° C. for 5 min. Per ml cell suspension 27 μl of a cytochalasin B-solution were added (100 μg/ml in DMSO, Sigma). The cells were incubated for further 3 min at 37° C. 75 μl of the cell suspension were added to 20 μl compound solution leading to a volume of 95 μl per well. After incubation of the cells for 10 min at 37° C. 10 μl hrC5a (10.5 nM in HAG-CM, Sigma) per well were added. The cells were incubated for additional 5 min at 37° C. The mtp was then transferred to ice and centrifuged for 3 min at 4° C. with 1200×g. 75 μl of the supernatant were added to 100 μl substrate-solution (2.7 mg/ml p-nitrophenyl-N-acetyl-β-D-glucosaminide (Sigma) in 42.5 mM Na-acetate pH 4.5). The mtp was incubated for further 60 min at 37° C. 75 μl 0.4 M glycine pH 10.4 were added per well. The mtp was transferred into a reader and the absorption at 405 nm was measured. IC50-values were obtained following the equation; y=((A-D)/(1+(x/C)^B))+D.
Determination of EC50-Values in an Enzyme Release Assay
The determination of EC50-values was performed according to the procedure given in example II, with the exception that 30 μl of the test compound need to be mixed with 75 μl of the cell suspension mentioned in example 11. Neither preincubation nor addition of C5a for stimulation of enzyme release is needed.

Positions of bridges follow the written chain, without caps; N, C: chain ends. Non-standard residues stand in square brackets, D forms with d. Residues, ends and D or L forms follow the SMILES beside them. *: point of attachment. Dip = N[C@H](C(=O)O)C(c1ccccc1)c1ccccc1; Bta = N[C@@H](Cc1csc2ccccc12)C(=O)O; Hydrocinnamoyl = O=C(CCc1ccccc1)*; 2Thi = N[C@@H](Cc1cccs1)C(=O)O; dCha = N[C@H](CC1CCCCC1)C(=O)O; AllylGly = C=CC[C@H](N)C(=O)O; Pip = O=C(O)[C@@H]1CCCCN1; Nle = CCCC[C@H](N)C(=O)O; Orn = NCCC[C@H](N)C(=O)O; Aze = O=C(O)[C@@H]1CCN1

On to `CCCC[C@@H]1NC(=O)[C@H](Cc2c[nH]c3ccccc23)NC(=O)[C@@H](CC2CCCCC2)NC(=O)[C@@H]2CCCN2C(=O)[C@@H](NC(=O)[C@H](Cc2ccccc2)NC(=O)CON=CC(O)C(O)C(O)C(O)CO)CCCNC1=O` (single isomer, unassigned) [Compound 3, HOCH2(CHOH)4—C═N—O—CH2—CO-Phe-[Orn-Pro-cha-Trp-Nle]], for which, at human C5aR(CD88) [1], the IC50 was 50 to 200 nM and the “inhibitory activity (in words)” value is “noteworthy inhibitory activity”. Further, on human C5aR(CD88) [2], the EC50 was above 1430 nM and the “agonistic activity (in words)” value was “pure antagonists”.
For the molecule `CC(=O)N[C@@H](Cc1ccccc1)C(=O)N[C@@H](CCCN)C(=O)N[C@H](CC1CCCCC1)C(=O)N[C@H](CC1CCCCC1)C(=O)N[C@@H](Cc1csc2ccccc12)C(=O)N[C@@H](Cc1ccccc1)C(N)=O` [Ac-Phe-Orn-cha-cha-Bta-Phe-NH2] (Ac-F[Orn][dCha][dCha][Bta]F-NH2), the “agonistic activity (in words)” value on human C5aR(CD88) [2] is on record as “pure antagonists”.
For the molecule `C=CC[C@@H]1NC(=O)[C@H](Cc2c[nH]c3ccccc23)NC(=O)[C@@H](CC2CCCCC2)NC(=O)[C@@H]2CCCN2C(=O)[C@@H](NC(=O)[C@H](Cc2ccccc2)NC(C)=O)CCCNC1=O` [Compound 33, Ac-Phe-[Orn-Pro-cha-Trp-Eaf]] (Ac-F[Orn]P[dCha]W[AllylGly]; lactam 2-C), on human C5aR(CD88) [1], the IC50 lay in the range of 5 to 10 nM and the “inhibitory activity (in words)” value was “without significant loss of activity”. In addition, at human C5aR(CD88) [1] (listed as Ac-Phe-[Orn-Pro-cha-Trp-Eaf]), the “inhibitory activity (in words)” value is “noteworthy inhibitory activity”. On human C5aR(CD88) [2], the EC50 was above 1430 nM and the “agonistic activity (in words)” value is recorded as “pure antagonists”.
For the molecule `CCCC[C@@H]1NC(=O)[C@H](Cc2c[nH]c3ccccc23)NC(=O)[C@@H](CC2CCCCC2)NC(=O)[C@@H]2CCCN2C(=O)[C@@H](NC(=O)CCc2ccccc2)CCCNC1=O` [Compound 41, Ph-CH2—CH2—CO-[Orn-Pro-cha-Trp-Nle]] (Hydrocinnamoyl-[Orn]P[dCha]W[Nle]; lactam 1-C), at human C5aR(CD88) [1], the IC50 lay in the range of 10 to 20 nM and the “inhibitory activity (in words)” value is reported as “noteworthy inhibitory activity”. Besides, on human C5aR(CD88) [2], the EC50 is above 1430 nM and the “agonistic activity (in words)” value was “pure antagonists”.
Take `CCCC[C@@H]1NC(=O)[C@H](Cc2c[nH]c3ccccc23)NC(=O)[C@@H](CC2CCCCC2)NC(=O)[C@H](CO)NC(=O)[C@@H](NC(=O)[C@@H](N)Cc2ccccc2)CCCNC1=O` [Compound 44, H-Phe-[Orn-Ser-cha-Trp-Nle]] (H-F[Orn]S[dCha]W[Nle]; lactam 2-C): at human C5aR(CD88) [2], the “agonistic activity (in words)” value was “pure antagonists”.
Consider `CC(=O)N[C@@H](Cc1ccccc1)C(=O)N[C@@H](CCCN)C(=O)N1CCCC[C@H]1C(=O)N[C@H](CC1CCCCC1)C(=O)N[C@@H](Cc1c[nH]c2ccccc12)C(=O)N[C@@H](Cc1ccccc1)C(N)=O` [Compound 55, Ac-Phe-Orn-Pip-cha-Trp-Phe-NH2] (Ac-F[Orn][Pip][dCha]WF-NH2), for which, at human C5aR(CD88) [1], the IC50 is 20 to 50 nM. Also, at human C5aR(CD88) [2], the EC50 is above 100000 nM and the “agonistic activity (in words)” value was “pure antagonists”.
As for `CC(=O)N[C@@H](Cc1ccccc1)C(=O)N[C@@H](CCCN)C(=O)N1CCC[C@H]1C(=O)N[C@H](CC1CCCCC1)C(=O)N[C@@H](Cc1c[nH]c2ccccc12)C(=O)N[C@@H](Cc1ccccc1)C(N)=O` [Compound 61, Ac-Phe-Orn-Pro-cha-Trp-Phe-NH2] (Ac-F[Orn]P[dCha]WF-NH2), at human C5aR(CD88) [2], the EC50 was above 100000 nM and the “agonistic activity (in words)” value was “pure antagonists”.
On to `CC(=O)N[C@@H](Cc1ccccc1)C(=O)N[C@@H](CCCN)C(=O)N1CCC[C@H]1C(=O)N[C@H](CC1CCCCC1)C(=O)N[C@@H](Cc1csc2ccccc12)C(=O)N[C@@H](Cc1ccccc1)C(N)=O` [Compound 62, Ac-Phe-Orn-Pro-cha-Bta-Phe-NH2] (Ac-F[Orn]P[dCha][Bta]F-NH2), for which the IC50 on human C5aR(CD88) [1] was 20 to 50 nM. Moreover, on human C5aR(CD88) [2], the EC50 was above 100000 nM and the “agonistic activity (in words)” value is recorded as “pure antagonists”.
For `CC(=O)N[C@@H](Cc1cccs1)C(=O)N[C@@H](CCCN)C(=O)N1CCCC[C@H]1C(=O)N[C@H](CC1CCCCC1)C(=O)N[C@@H](Cc1csc2ccccc12)C(=O)N[C@@H](Cc1ccccc1)C(N)=O` [Compound 67, Ac-Thi-Orn-Pip-cha-Bta-Phe-NH2] (Ac-[2Thi][Orn][Pip][dCha][Bta]F-NH2) the same measures were 20 to 50 nM, above 100000 nM and “pure antagonists”.
For `CC(=O)N[C@H](C(=O)N[C@@H](CCCN)C(=O)N1CCC[C@H]1C(=O)N[C@H](CC1CCCCC1)C(=O)N[C@@H](Cc1c[nH]c2ccccc12)C(=O)N[C@@H](Cc1ccccc1)C(N)=O)C(c1ccccc1)c1ccccc1` [Compound 71, Ac-Ebw-Orn-Pro-cha-Trp-Phe-NH2] (Ac-[Dip][Orn]P[dCha]WF-NH2) the same measures were 200 to 2000 nM, above 100000 nM and “pure antagonists”.
On to `CC(=O)N[C@@H](Cc1ccccc1)C(=O)N[C@@H](CCCN)C(=O)N1CC[C@H]1C(=O)N[C@H](CC1CCCCC1)C(=O)N[C@@H](Cc1c[nH]c2ccccc12)C(=O)N[C@@H](Cc1ccccc1)C(N)=O` [Compound 83, Ac-Phe-Orn-Aze-cha-Trp-Phe-NH2] (Ac-F[Orn][Aze][dCha]WF-NH2), for which, on human C5aR(CD88) [1], the IC50 was in the range of 20 to 50 nM. Further, at human C5aR(CD88) [2], the half-maximal effective concentration (EC50) was above 100000 nM and the “agonistic activity (in words)” value is on record as “pure antagonists”.
For `CC(=O)N[C@@H](Cc1ccccc1)C(=O)N[C@@H](Cc1c[nH]c2ccccc12)C(=O)N1CCC[C@H]1C(=O)N[C@H](CC1CCCCC1)C(=O)N[C@@H](Cc1c[nH]c2ccccc12)C(=O)N[C@@H](Cc1ccccc1)C(N)=O` [Compound 84, Ac-Phe-Trp-Pro-cha-Trp-Phe-NH2] (Ac-FWP[dCha]WF-NH2) the same measures were 50 to 200 nM, above 100000 nM and “pure antagonists”.
Regarding `CC(=O)N[C@@H](Cc1ccccc1)C(=O)N[C@@H](CCCNC(=N)N)C(=O)N1CCC[C@H]1C(=O)N[C@H](CC1CCCCC1)C(=O)N[C@@H](Cc1c[nH]c2ccccc12)C(=O)N[C@@H](Cc1ccccc1)C(N)=O` [Compound 88, Ac-Phe-Arg-Pro-cha-Trp-Phe-NH2] (Ac-FRP[dCha]WF-NH2), the IC50 at human C5aR(CD88) [1] lay in the range of 20 to 50 nM. Also, on human C5aR(CD88) [2], the concentration for a half-maximal effect (EC50) was above 100000 nM and the “agonistic activity (in words)” value was “pure antagonists”.
For `N[C@@H](Cc1ccccc1)C(=O)N[C@H]1CCCNC(=O)[C@H](Cc2ccccc2)NC(=O)[C@H](Cc2c[nH]c3ccccc23)NC(=O)[C@@H](CC2CCCCC2)NC(=O)[C@@H]2CCCN2C1=O` [H-Phe-[Orn-Pro-cha-Trp-Phe]] (H-F[Orn]P[dCha]WF; lactam 2-C), the “agonistic activity (in words)” value at human C5aR(CD88) [2] is “pure antagonists”.

B1: hrC5a: hrC5a (Sigma), added for stimulation of enzyme release (protein, UniProt P01031 678-751, looked up)
C5a anaphylatoxin: TLQKKIEEIAAKYKHSVVKKCCYDGACVNNDETCEQRAARISLGPRCIKAFTECCVVASQLRANISHKDMQLGR
modifications: C5a anaphylatoxin
notes: hrC5a (Sigma), added for stimulation of enzyme release
For the molecule B1, the EC50 in the test with human C5aR(CD88) [2] was 2.4 nM.
